Oligonucleotides are written 5' to 3', each unit as a sugar letter and its base; * is a phosphorothioate linkage, no mark a phosphodiester; rarer units and linkages stand in square brackets, end groups in braces. Plain capitals give the bases only. e = 2'-O-(2-methoxyethyl) (MOE); [5mC] = 5-methylcytosine; d = 2'-deoxy (DNA)
Columns and labels:
Format in all cases: cell-based
Human STAT3 mRNA [1] = experiment: Human STAT3 mRNA dose response in T-24 cells, real-time PCR with PPS 199 (Table 18); conditions: 16 hours, − decrease, + increase relative to untreated control
Description: The transitional cell bladder carcinoma cell line T-24 was obtained from the American Type Culture Collection (ATCC) (Manassas, Va.). T-24 cells were routinely cultured in complete McCoy's 5A basal media (Gibco/Life Technologies, Gaithersburg, Md.) supplemented with 10% fetal calf serum (Gibco/Life Technologies, Gaithersburg, Md.), penicillin 100 units per mL, and streptomycin 100 micrograms per mL (Gibco/Life Technologies, Gaithersburg, Md.). Cells were routinely passaged by trypsinization and dilution when they reached 90% confluence. Cells were seeded into 96-well plates (Falcon-Primaria #3872) at a density of 7000 cells/well for use in RT-PCR analysis.
Control oligonucleotides used were ISIS 129695 ([…], SEQ ID NO: 391), ISIS 129694 ([…] SEQ ID NO: 392), ISIS 129690 ([…] SEQ ID NO: 393), ISIS 129686 ([…] SEQ ID NO: 394), ISIS 116847 ([…], SEQ ID NO: 395) and ISIS 113529 ([…] SEQ ID NO: 396). These are universal scrambled control oligonucleotides.
(§1) T-24 cells were treated with 18.75, 37.5, 75, or 150 nM of oligonucleotide mixed with 3 ug/mL LIPOFECTIN per 100 nM oligonucleotide as described by other examples herein. Untreated cells served as controls. Following 16 hours of treatment, RNA was prepared from cells for subsequent real-time PCR analysis.
Human STAT3 mRNA expression levels were quantitated by real-time PCR using primer probe set PPS 199 and gene target quantities were normalized using Ribogreen as described in other examples herein. A “−” or “+” designation indicates a decrease or increase of STAT 3 mRNA expression, respectively, relative to untreated control cells.

Human STAT3 mRNA [2] = experiment: Human STAT3 mRNA dose response in T-24 cells, real-time PCR with PPS 2033 (Table 19); conditions: 16 hours, − decrease, + increase relative to untreated control
Experimental: The dose-response was repeated in T-24 cells and gene target quantities were measured using a different primer-probe set, called PPS 2033 herein. PPS 2033 comprises probes and primers to human STAT3 were designed to hybridize to a human STAT3 sequence, using published sequence information (incorporated herein as SEQ ID NO: XXX). For PPS 2033 the PCR primers were: forward primer: GAGGCCCGCCCAACA (SEQ ID NO: 397) reverse primer: […] (SEQ ID NO: 398) and the PCR probe was: FAM-CTGCCTAGATCGGC-TAMRA (SEQ ID NO: 399) where FAM is the fluorescent reporter dye and TAMRA is the quencher dye. Gene target quantities obtained by real time RT-PCR are normalized by quantifying total RNA using RiboGreen™ (Molecular Probes, Inc. Eugene, Oreg.). Control oligonucleotides used were ISIS 129695 (SEQ ID NO: 391), ISIS 129694 (SEQ ID NO: 392), ISIS 129690 (SEQ ID NO: 393), ISIS 129686 (SEQ ID NO: 394), ISIS 116847 (SEQ ID NO: 395) and ISIS 113529 (SEQ ID NO: 396).
as §1
Human STAT3 mRNA expression levels were quantitated by real-time PCR using primer probe set PPS 2033 and gene target quantities were normalized using Ribogreen as described in other examples herein. A “−” or “+” designation indicates a decrease or increase of STAT 3 mRNA expression, respectively, relative to untreated control cells.

Human STAT3 mRNA [3] = experiment: Inhibition of human STAT3 mRNA levels in A549 cells, 75 nM, real-time PCR (Table 13); conditions: 75 nM oligonucleotide with LIPOFECTIN, real-time PCR PPS 199, percent inhibition relative to untreated control cells, average of 2 experiments
Procedure, shortened: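 A549 cells at 65–75% confluency were transfected in duplicate with 75 nM oligonucleotide plus […] Lipofectin for 4–7 h at 37° C and harvested 16–24 h later. STAT3 mRNA was quantified by real-time RT-PCR with primer-probe set PPS 199 and normalized to RiboGreen total RNA. Inhibition is relative to untreated controls.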

For “106747 (GCCCATGATGATTTCAGCAA; all C 5-methyl, all phosphorothioate, sugars by position not given here; further chemistry not fully specified) [compound 106747]”, the “Percent change of STAT3 expression using PPS 199” value (“Percent change … using PPS 199” below) (Human STAT3 mRNA [1]; 18.75 nM oligonucleotide) was −37%, the “Percent change … using PPS 199” value (Human STAT3 mRNA [1]; 37.5 nM oligonucleotide) was −48% and the “Percent change … using PPS 199” value (Human STAT3 mRNA [1]; 75 nM oligonucleotide) was −71%. The “Percent change … using PPS 199” value (Human STAT3 mRNA [1]; 150 nM oligonucleotide) was −84%, the “Percent change of STAT3 expression using PPS 2033” value (shortened to “Percent change … using PPS 2033”) (Human STAT3 mRNA [2]; 18.75 nM oligonucleotide) was −32% and the “Percent change … using PPS 2033” value (Human STAT3 mRNA [2]; 37.5 nM oligonucleotide) was −48%. For the same substance, the “Percent change … using PPS 2033” value (Human STAT3 mRNA [2]; 75 nM oligonucleotide) was −62% and the “Percent change … using PPS 2033” value (Human STAT3 mRNA [2]; 150 nM oligonucleotide) was −76%.

“337356 (antisense eA*eT*eG*eG*eT*dA*dT*dT*dG*d[5mC]*dT*dG*d[5mC]*dA*dG*eG*eT*e[5mC]*eG*eT) [compound 337356]” was tested, and the “% Inhib (inhibition of human STAT 3 mRNA levels)” value (from here on “% Inhib”) (Human STAT3 mRNA [3]) was 75%.

For “337357 (antisense eG*eG*eT*e[5mC]*eA*dA*dT*dG*dG*dT*dA*dT*dT*dG*d[5mC]*eT*eG*e[5mC]*eA*eG) [compound 337357]”, the “% Inhib” value (Human STAT3 mRNA [3]) was 71%.

“337358 (antisense eG*eA*e[5mC]*eA*eT*d[5mC]*dG*dG*d[5mC]*dA*dG*dG*dT*d[5mC]*dA*eA*eT*eG*eG*eT) [compound 337358]” was tested, and the “% Inhib” value (Human STAT3 mRNA [3]) was 77%.

With “337359 (antisense e[5mC]*eA*eA*eT*eG*dA*dA*dT*d[5mC]*dT*dA*dA*dA*dG*dT*eG*e[5mC]*eG*eG*eG) [compound 337359]” the “% Inhib” value (Human STAT3 mRNA [3]) was 57%.

With “337360 (antisense eT*eG*e[5mC]*eA*eT*d[5mC]*dA*dA*dT*dG*dA*dA*dT*d[5mC]*dT*eA*eA*eA*eG*eT) [compound 337360]” the “% Inhib” value (Human STAT3 mRNA [3]) was 71%.

For “337361 (antisense e[5mC]*eA*eA*eA*e[5mC]*dT*dG*d[5mC]*dA*dT*d[5mC]*dA*dA*dT*dG*eA*eA*eT*e[5mC]*eT) [compound 337361]”, the “% Inhib” value (Human STAT3 mRNA [3]) was 61%.

“337362 (antisense eA*eT*eT*eT*e[5mC]*d[5mC]*dA*dA*dA*d[5mC]*dT*dG*d[5mC]*dA*dT*e[5mC]*eA*eA*eT*eG) [compound 337362]” was tested, and the “% Inhib” value (Human STAT3 mRNA [3]) was 69%.

In the case of “337363 (antisense eA*eA*e[5mC]*eT*eG*d[5mC]*d[5mC]*d[5mC]*dT*d[5mC]*d[5mC]*dT*dG*d[5mC]*dT*eG*eA*eG*eG*eG) [compound 337363]”, the “% Inhib” value (Human STAT3 mRNA [3]) is reported as 63%.

For “337364 (antisense eG*eG*eT*eG*eA*dG*dG*dG*dA*d[5mC]*dT*d[5mC]*dA*dA*dA*e[5mC]*eT*eG*e[5mC]*e[5mC]) [compound 337364]”, the “% Inhib” value (Human STAT3 mRNA [3]) was 70%.

“337365 (antisense e[5mC]*eA*eG*eT*e[5mC]*dG*dT*dA*dT*d[5mC]*dT*dT*dT*d[5mC]*dT*eG*e[5mC]*eA*eG*e[5mC]) [compound 337365]” was tested, and the “% Inhib” value (Human STAT3 mRNA [3]) was 84%.

With “337366 (antisense eA*eG*eA*eT*eA*dG*d[5mC]*dA*dG*dA*dA*dG*dT*dA*dG*eG*eA*eG*eA*eT) [compound 337366]” the “% Inhib” value (Human STAT3 mRNA [3]) was 66%.

“337367 (antisense eA*eA*eA*eG*eT*dG*d[5mC]*d[5mC]*d[5mC]*dA*dG*dA*dT*dT*dG*e[5mC]*eT*e[5mC]*eA*eA) [compound 337367]” was tested, and the “% Inhib” value (Human STAT3 mRNA [3]) was 82%.

With “337368 (antisense eT*eT*eT*eT*eT*dA*dA*dA*dA*dG*dT*dG*d[5mC]*d[5mC]*d[5mC]*eA*eG*eA*eT*eT) [compound 337368]” the “% Inhib” value (Human STAT3 mRNA [3]) was 59%.

“337369 (antisense e[5mC]*eA*eG*eA*eT*d[5mC]*dA*d[5mC]*d[5mC]*d[5mC]*dA*d[5mC]*dA*dT*dT*e[5mC]*eA*e[5mC]*eT*e[5mC]) [compound 337369]” was tested, and the “% Inhib” value (Human STAT3 mRNA [3]) was 88%.

With “337370 (antisense eT*eG*e[5mC]*eA*eT*dT*dT*dA*dG*dA*dT*dA*dA*dA*dA*eG*e[5mC]*eA*eG*eA) [compound 337370]” the “% Inhib” value (Human STAT3 mRNA [3]) was 78%.

“337371 (antisense eG*eA*eA*e[5mC]*eA*d[5mC]*dA*dT*d[5mC]*d[5mC]*dT*dT*dA*dT*dT*eT*eG*e[5mC]*eA*eT) [compound 337371]” was tested, and the “% Inhib” value (Human STAT3 mRNA [3]) was 76%.

“337372 (antisense eA*eT*e[5mC]*eA*eT*dG*dG*dG*dT*d[5mC]*dT*d[5mC]*dA*dG*dA*eG*eA*eA*e[5mC]*eA) [compound 337372]” was tested, and the “% Inhib” value (Human STAT3 mRNA [3]) was 88%.

With “337373 (antisense e[5mC]*eA*e[5mC]*eA*eT*d[5mC]*d[5mC]*d[5mC]*d[5mC]*dT*dG*dA*dT*d[5mC]*dA*eT*eG*eG*eG*eT) [compound 337373]” the “% Inhib” value (Human STAT3 mRNA [3]) was 70%.

With “337374 (antisense eA*eG*eA*e[5mC]*eA*dT*dT*dT*d[5mC]*d[5mC]*dT*dT*dT*dT*dT*e[5mC]*eT*e[5mC]*e[5mC]*e[5mC]) [compound 337374]” the “% Inhib” value (Human STAT3 mRNA [3]) was 67%.

In the case of “337375 (antisense eA*e[5mC]*e[5mC]*eA*eG*dG*dA*dG*dG*d[5mC]*dA*d[5mC]*dT*dT*dG*eT*e[5mC]*eT*eA*eA) [compound 337375]”, the “% Inhib” value (Human STAT3 mRNA [3]) is reported as 89%.

In the case of “337376 (antisense eG*e[5mC]*eA*eG*eG*d[5mC]*dA*d[5mC]*d[5mC]*dA*dG*dG*dA*dG*dG*e[5mC]*eA*e[5mC]*eT*eT) [compound 337376]”, the “% Inhib” value (Human STAT3 mRNA [3]) is reported as 83%.

“337377 (antisense eG*e[5mC]*eT*eT*eA*d[5mC]*dA*dG*dA*dA*dA*d[5mC]*dA*dG*dG*e[5mC]*eA*eG*eA*eA) [compound 337377]” was tested, and the “% Inhib” value (Human STAT3 mRNA [3]) was 78%.

For “337378 (antisense eA*eG*eG*eT*eG*dG*d[5mC]*d[5mC]*dT*dG*dT*dG*dG*d[5mC]*dA*eT*eT*eT*eG*e[5mC]) [compound 337378]”, the “% Inhib” value (Human STAT3 mRNA [3]) was 16%.

“337379 (antisense eG*eT*eA*eT*eG*dT*dA*dG*d[5mC]*dT*dA*dT*dA*dG*dG*eT*eG*eG*e[5mC]*e[5mC]) [compound 337379]” was tested, and the “% Inhib” value (Human STAT3 mRNA [3]) was 71%.

With “337380 (antisense eG*e[5mC]*eA*eA*eT*dG*d[5mC]*d[5mC]*dA*dG*dG*dA*dG*dT*dA*eT*eG*eT*eA*eG) [compound 337380]” the “% Inhib” value (Human STAT3 mRNA [3]) was 83%.

For “337381 (antisense eT*eT*eA*eA*eA*dA*dA*dG*dT*dG*d[5mC]*dA*dA*dT*dG*e[5mC]*e[5mC]*eA*eG*eG) [compound 337381]”, the “% Inhib” value (Human STAT3 mRNA [3]) was 86%.

For “337382 (antisense eG*eG*e[5mC]*eT*eT*dA*dG*dA*dT*dA*dG*dT*d[5mC]*d[5mC]*dT*eA*eT*e[5mC]*eT*eT) [compound 337382]”, the “% Inhib” value (Human STAT3 mRNA [3]) was 84%.

“337383 (antisense eT*eA*eA*eA*eA*dA*dG*dA*dA*dA*d[5mC]*d[5mC]*dT*dA*dG*eG*eG*e[5mC]*eT*eT) [compound 337383]” was tested, and the “% Inhib” value (Human STAT3 mRNA [3]) was 81%.

With “337385 (antisense eT*eT*eA*eA*eG*dT*dT*dT*d[5mC]*dT*dT*dA*dA*dA*dT*eA*e[5mC]*eA*eG*eA) [compound 337385]” the “% Inhib” value (Human STAT3 mRNA [3]) was 70%.
